Experimental findings from PMC4890880 (ACS infectious diseases, 2016) are described below.

The subject of assay [1] is Plasmodium berghei (Pb-Luc) exoerythrocytic-stage parasites. The following applies: for normalized signal at concentration 0.000508053 / normalized signal at concentration 0.00152416 / normalized signal at concentration 0.00457247 / normalized signal at concentration 0.0137174 / normalized signal at concentration 0.0411523 / normalized signal at concentration 0.123457 / normalized signal at concentration 0.37037 / normalized signal at concentration 1.11111 / normalized signal at concentration 3.33333 / normalized signal at concentration 10: fraction of control; for IC50: read-out: PbLuc_IC50.

Assay [2] relates to HepG2-A16-CD81EGFP cells. The settings on record: for IC50: read-out: Tox_IC50, HepG2 cytotoxicity.
Setting [3] is: second series of columns (replicate).
[4] abbreviates: sheet 2nd round, maximal inhibition in dose response.
The mark [5] stands for this setting: first series of dose-response columns.
[6] abbreviates: sheet 2nd round, Broad compounds, dose response.
The mark [7] stands for this setting: second series of dose-response columns.

Molecules are shown by their SMILES. Where two headings read alike, the source gives them in different places.

In the case of `C[C@@H]1CCCCO[C@H](CN(C)S(=O)(=O)c2ccc(F)cc2)[C@@H](C)CN([C@@H](C)CO)C(=O)c2cc(N(C)C)ccc2O1` [BRD-K27035180-001-01-0], in assay [1] (first series of columns), the “normalized signal at concentration 0.000508053” value was found to be 0.9801, the “normalized signal at concentration 0.00152416” value is 1.117, the “normalized signal at concentration 0.00457247” value turned out to be 0.8737 and the “normalized signal at concentration 0.0137174” value turned out to be 0.9285. In assay [1] (first series of columns), the “normalized signal at concentration 0.0411523” value turned out to be 1.068, the “normalized signal at concentration 0.123457” value was determined as 0.9867, the “normalized signal at concentration 0.37037” value stood at 0.8491 and the “normalized signal at concentration 1.11111” value turned out to be 1.048. In assay [1] (first series of columns), the “normalized signal at concentration 3.33333” value is recorded as 0.9262 and the “normalized signal at concentration 10” value is recorded as 0.8261. The IC50 in assay [1] (sheet 2nd round, Pb-Luc exoerythrocytic stage, 10-point dose response, top concentration 10) is more than 10 µM. In addition, in assay [1] (setting [3]), the “normalized signal at concentration 0.000508053” value stood at 0.9613, the “normalized signal at concentration 0.00152416” value amounted to 1.064, the “normalized signal at concentration 0.00457247” value is 0.9935 and the “normalized signal at concentration 0.0137174” value came to 0.8637. In addition, in assay [1] (setting [3]), the “normalized signal at concentration 0.0411523” value was determined as 1.045, the “normalized signal at concentration 0.123457” value came out at 0.8684, the “normalized signal at concentration 0.37037” value is given as 1.143 and the “normalized signal at concentration 1.11111” value is 0.8369. For the same compound, in assay [1] (setting [3]), the “normalized signal at concentration 3.33333” value amounted to 1.121 and the “normalized signal at concentration 10” value is given as 0.5603. Moreover, the “PbLuc_max_inhibition (%)” value in assay [1] (setting [4]) is given as 44%. For the same compound, in assay [2] (sheet 2nd round), the IC50 is more than 10 µM. Moreover, the “Tox_max_inhibition (%)” value in assay [2] (setting [4]) stood at 10%.

On to `CN(C)C(=O)c1ccc(-c2ccc([C@@H]3[C@H]4CN(C(=O)CC5CC5)CC(=O)N4[C@H]3CO)cc2)cc1` [BRD-K27481961-001-01-1], for which the “normalized signal at concentration 10” value in assay [1] (setting [5]) is recorded as 1.04. For the same compound, in assay [1] (first series), the “normalized signal at concentration 0.000508053” value worked out at 0.88, the “normalized signal at concentration 0.00152416” value turned out to be 0.98, the “normalized signal at concentration 0.00457247” value stood at 1.01 and the “normalized signal at concentration 0.0137174” value is recorded as 0.77. Also, in assay [1] (first series), the “normalized signal at concentration 0.0411523” value was 0.91, the “normalized signal at concentration 0.123457” value is 0.95, the “normalized signal at concentration 0.37037” value is 0.98 and the “normalized signal at concentration 1.11111” value is given as 1.00. In addition, the “normalized signal at concentration 3.33333” value in assay [1] (first series) stood at 0.94. Also, the IC50 in assay [1] (setting [6]) is more than 10 µM. In assay [1] (setting [7]), the “normalized signal at concentration 10” value was 0.89. Besides, in assay [1] (second series), the “normalized signal at concentration 0.000508053” value is 1.05, the “normalized signal at concentration 0.00152416” value is 1.04, the “normalized signal at concentration 0.00457247” value was 0.89 and the “normalized signal at concentration 0.0137174” value came to 0.89. Further, in assay [1] (second series), the “normalized signal at concentration 0.0411523” value turned out to be 0.96, the “normalized signal at concentration 0.123457” value worked out at 1.12, the “normalized signal at concentration 0.37037” value was 1.12 and the “normalized signal at concentration 1.11111” value was 0.98. Moreover, the “normalized signal at concentration 3.33333” value in assay [1] (second series) stood at 1.20. The “PbLuc_max_inhibition (%)” value in assay [1] (setting [4]) turned out to be 23%. The IC50 in assay [2] (sheet 2nd round) is more than 10 µM. The “Tox_max_inhibition (%)” value in assay [2] (setting [4]) was found to be 6%.

Take `CN(C)c1ccc2c(c1)[C@@H]1C[C@@H](CC(=O)NC3CCCCC3)O[C@@H](CO)[C@@H]1O2` [BRD-K29474997-001-01-2]: the “normalized signal at concentration 10” value in assay [1] (setting [5]) is on record as 1.33. Besides, in assay [1] (first series), the “normalized signal at concentration 0.000508053” value stood at 1.31, the “normalized signal at concentration 0.00152416” value is listed as 1.11, the “normalized signal at concentration 0.00457247” value worked out at 1.19 and the “normalized signal at concentration 0.0137174” value amounted to 0.90. In assay [1] (first series), the “normalized signal at concentration 0.0411523” value was found to be 0.87, the “normalized signal at concentration 0.123457” value was determined as 0.89, the “normalized signal at concentration 0.37037” value is recorded as 0.92 and the “normalized signal at concentration 1.11111” value is on record as 1.25. In assay [1] (first series), the “normalized signal at concentration 3.33333” value turned out to be 0.99. The IC50 in assay [1] (setting [6]) is more than 10 µM. In assay [1] (setting [7]), the “normalized signal at concentration 10” value is reported as 1.28. In assay [1] (second series), the “normalized signal at concentration 0.000508053” value is given as 1.12, the “normalized signal at concentration 0.00152416” value was 1.06, the “normalized signal at concentration 0.00457247” value came out at 1.06 and the “normalized signal at concentration 0.0137174” value stood at 1.04. Moreover, in assay [1] (second series), the “normalized signal at concentration 0.0411523” value was found to be 1.09, the “normalized signal at concentration 0.123457” value stood at 0.92, the “normalized signal at concentration 0.37037” value worked out at 0.91 and the “normalized signal at concentration 1.11111” value came out at 1.04. Also, in assay [1] (second series), the “normalized signal at concentration 3.33333” value came to 1.16. Also, the “PbLuc_max_inhibition (%)” value in assay [1] (setting [4]) came out at 13%. The IC50 in assay [2] (sheet 2nd round) was more than 10 µM. For the same compound, the “Tox_max_inhibition (%)” value in assay [2] (setting [4]) came out at 12%.

For `COc1ccc(S(=O)(=O)N(C)C[C@H]2Oc3ccc(NC(=O)Cc4cn(C)c5ccccc45)cc3C(=O)N([C@H](C)CO)C[C@@H]2C)cc1` [BRD-K30240821-001-02-4], in assay [1] (setting [5]), the “normalized signal at concentration 10” value stood at 0.7772. Further, in assay [1] (first series), the “normalized signal at concentration 0.000508053” value stood at 0.8923, the “normalized signal at concentration 0.00152416” value was 0.848, the “normalized signal at concentration 0.00457247” value turned out to be 0.7066 and the “normalized signal at concentration 0.0137174” value is 0.8032. Besides, in assay [1] (first series), the “normalized signal at concentration 0.0411523” value is listed as 0.8311, the “normalized signal at concentration 0.123457” value was found to be 1.098, the “normalized signal at concentration 0.37037” value stood at 0.9739 and the “normalized signal at concentration 1.11111” value is 0.9836. The “normalized signal at concentration 3.33333” value in assay [1] (first series) is on record as 0.9041. In addition, in assay [1] (setting [6]), the IC50 is more than 10 µM. Further, in assay [1] (setting [7]), the “normalized signal at concentration 10” value amounted to 0.9286. Also, in assay [1] (second series), the “normalized signal at concentration 0.000508053” value amounted to 0.993, the “normalized signal at concentration 0.00152416” value stood at 0.893, the “normalized signal at concentration 0.00457247” value is on record as 0.9938 and the “normalized signal at concentration 0.0137174” value was 0.8741. In assay [1] (second series), the “normalized signal at concentration 0.0411523” value stood at 1.056, the “normalized signal at concentration 0.123457” value is 0.8643, the “normalized signal at concentration 0.37037” value was determined as 1.021 and the “normalized signal at concentration 1.11111” value is 1.07. For the same compound, in assay [1] (second series), the “normalized signal at concentration 3.33333” value was found to be 1.082. Moreover, the “PbLuc_max_inhibition (%)” value in assay [1] (setting [4]) turned out to be 29%. In addition, the IC50 in assay [2] (sheet 2nd round) was more than 10 µM. Moreover, the “Tox_max_inhibition (%)” value in assay [2] (setting [4]) came out at 8.48%.

Turning to `O=C(NCc1ccc2c(c1)OCO2)[C@@H]1[C@@H](CO)[C@@H]2Cn3c(cccc3=O)[C@H]1N2Cc1cncnc1` [BRD-K31004267-001-01-6], the “normalised signal at concentration 0.000508053 (first series)” value in assay [1] (concentration 0.000508053, first series) is listed as 0.9455. The “normalised signal at concentration 0.000508053 (second series)” value in assay [1] (concentration 0.000508053, second series) stood at 0.7294. For the same compound, the “normalised signal at concentration 0.00152416 (first series)” value in assay [1] (concentration 0.00152416, first series) is listed as 0.9922. Besides, the “normalised signal at concentration 0.00152416 (second series)” value in assay [1] (concentration 0.00152416, second series) came out at 1.083. Besides, the “normalised signal at concentration 0.00457247 (first series)” value in assay [1] (concentration 0.00457247, first series) amounted to 0.9907. Moreover, the “normalised signal at concentration 0.00457247 (second series)” value in assay [1] (concentration 0.00457247, second series) was determined as 0.8279. Further, the “normalised signal at concentration 0.0137174 (first series)” value in assay [1] (concentration 0.0137174, first series) is listed as 0.9424. Besides, the “normalised signal at concentration 0.0137174 (second series)” value in assay [1] (concentration 0.0137174, second series) is recorded as 0.9304. Moreover, in assay [1] (concentration 0.0411523, first series), the “normalised signal at concentration 0.0411523 (first series)” value was found to be 0.8128. The “normalised signal at concentration 0.0411523 (second series)” value in assay [1] (concentration 0.0411523, second series) stood at 1.152. Moreover, the “normalised signal at concentration 0.123457 (first series)” value in assay [1] (concentration 0.123457, first series) stood at 0.8401. Besides, the “normalised signal at concentration 0.123457 (second series)” value in assay [1] (concentration 0.123457, second series) amounted to 1.066. For the same compound, the “normalised signal at concentration 0.37037 (first series)” value in assay [1] (concentration 0.37037, first series) is recorded as 1.129. For the same compound, the “normalised signal at concentration 0.37037 (second series)” value in assay [1] (concentration 0.37037, second series) is given as 0.8899. The “normalised signal at concentration 1.11111 (first series)” value in assay [1] (concentration 1.11111, first series) came out at 0.9661. In addition, the “normalised signal at concentration 1.11111 (second series)” value in assay [1] (concentration 1.11111, second series) is 0.8895. Moreover, the “normalised signal at concentration 3.33333 (first series)” value in assay [1] (concentration 3.33333, first series) worked out at 0.7673. Besides, the “normalised signal at concentration 3.33333 (second series)” value in assay [1] (concentration 3.33333, second series) is on record as 0.9284. Besides, the “normalised signal at concentration 10 (first series)” value in assay [1] (concentration 10, first series of dose columns) was 1.039. Also, in assay [1] (concentration 10, second series of dose columns), the “normalised signal at concentration 10 (second series)” value came out at 0.9564. Moreover, the IC50 was more than 10 µM in assay [1] (sheet "2nd round", Broad compounds, dose response top concentration 10) and more than 10 µM in assay [2] (sheet "2nd round"). For the same compound, the “PbLuc_max_inhibition (%)” value in assay [1] (sheet "2nd round") stood at 27%. Further, the “Tox_max_inhibition (%)” value in assay [2] (sheet "2nd round") stood at 14%.
